Reference: patent US8143259B2, “Cold menthol receptor antagonists” (Janssen Pharmaceutica, NV, priority 2008, dated 2012)
Values joined by “and” are separate entries in the source; they are usually repeats but may differ in a detail not shown here. Equal entries are not always repeated.

Target: T1, canine TRPM8 (Canis lupus familiaris, UniProt Q1A7N1)
T1 construct: expressed in transfected cells
Assay: In Vitro Canine TRPM8 Functional Assay (Ca2+ fluorescence, icilin activation)
Assay type: cell-based
Details: for inhibition at 0.5 µM: HEK293, 0.5 μM compound; for inhibition at 0.5 µM / % Inh @ 0.2 μM / inhibition at 0.2 µM / % Inh @ 0.5 μM / inhibition at 1 µM / % Inh @ 1 μM: canine TRPM8 HEK293, icilin; for IC50: HEK293 cells stably expressing canine TRPM8, icilin activation, Ca2+ fluorescence; for % Inh @ 0.2 μM: 0.2 μM compound; for inhibition at 0.2 µM: HEK293, 0.2 μM compound; for % Inh @ 0.5 μM: 0.5 μM compound; for inhibition at 1 µM: HEK293, 1 μM compound; for % Inh @ 1 μM: 1 μM compound
Description: The functional activity of compounds of the formula (I) was determined by measuring changes in intracellular calcium concentration using a Ca^2+-sensitive fluorescent dye. The changes in fluorescent signal were monitored by a fluorescence plate reader, either a FLIPR™ (Molecular Devices) or FDSS (Hamamatsu). Increases in intracellular Ca^2+ concentration were readily detected upon activation with icilin.
HEK293 cells stably expressing canine TRPM8 were routinely grown as monolayers in Dulbecco's minimum essential medium supplemented with 10% FBS, 2 mM L-glutamine, 100 units/mL penicillin, 100 ug/mL streptomycin and 400 μg/mL G418. Cells were maintained in 5% CO2 at 37° C. At 24 hrs prior to assay, cells were seeded in black wall, clear-base poly-D-lysine coated 384-well plates (BD Biosciences, NJ, USA) at a density of 5,000 cells per well in culture medium and grown overnight in 5% CO2 at 37° C. On assay day, growth media was removed and cells were loaded with Calcium 3 Dye (Molecular Devices) for 35 min at 37° C., under 5% CO2 and then for 25 min at room temperature and atmosphere. Subsequently, cells were tested for agonist-induced increases in intracellular Ca^2+ levels using FLIPR™ or FDSS. Cells were challenged with compounds of the formula (I) (at varying concentrations) and intracellular Ca^2+ was measured for 5 min prior to the addition of icilin to all wells to achieve a final concentration that produces approximately an 80% maximal response.
Maximal fluorescence intensity (FI) achieved upon addition of icilin was exported from the FLIPR or FDSS software and further analyzed using GraphPad Prism 3.02 (Graph Pad Software Inc., CA, U.S.A.). Basal FI was subtracted prior to normalizing data to percent of maximal response. Curves were generated using the average of quadruplicate wells for each data point, were analyzed using nonlinear regression of either sigmoidal dose response or sigmoidal dose response (variable slope).

T1 sequence (Q1A7N1 1-1104): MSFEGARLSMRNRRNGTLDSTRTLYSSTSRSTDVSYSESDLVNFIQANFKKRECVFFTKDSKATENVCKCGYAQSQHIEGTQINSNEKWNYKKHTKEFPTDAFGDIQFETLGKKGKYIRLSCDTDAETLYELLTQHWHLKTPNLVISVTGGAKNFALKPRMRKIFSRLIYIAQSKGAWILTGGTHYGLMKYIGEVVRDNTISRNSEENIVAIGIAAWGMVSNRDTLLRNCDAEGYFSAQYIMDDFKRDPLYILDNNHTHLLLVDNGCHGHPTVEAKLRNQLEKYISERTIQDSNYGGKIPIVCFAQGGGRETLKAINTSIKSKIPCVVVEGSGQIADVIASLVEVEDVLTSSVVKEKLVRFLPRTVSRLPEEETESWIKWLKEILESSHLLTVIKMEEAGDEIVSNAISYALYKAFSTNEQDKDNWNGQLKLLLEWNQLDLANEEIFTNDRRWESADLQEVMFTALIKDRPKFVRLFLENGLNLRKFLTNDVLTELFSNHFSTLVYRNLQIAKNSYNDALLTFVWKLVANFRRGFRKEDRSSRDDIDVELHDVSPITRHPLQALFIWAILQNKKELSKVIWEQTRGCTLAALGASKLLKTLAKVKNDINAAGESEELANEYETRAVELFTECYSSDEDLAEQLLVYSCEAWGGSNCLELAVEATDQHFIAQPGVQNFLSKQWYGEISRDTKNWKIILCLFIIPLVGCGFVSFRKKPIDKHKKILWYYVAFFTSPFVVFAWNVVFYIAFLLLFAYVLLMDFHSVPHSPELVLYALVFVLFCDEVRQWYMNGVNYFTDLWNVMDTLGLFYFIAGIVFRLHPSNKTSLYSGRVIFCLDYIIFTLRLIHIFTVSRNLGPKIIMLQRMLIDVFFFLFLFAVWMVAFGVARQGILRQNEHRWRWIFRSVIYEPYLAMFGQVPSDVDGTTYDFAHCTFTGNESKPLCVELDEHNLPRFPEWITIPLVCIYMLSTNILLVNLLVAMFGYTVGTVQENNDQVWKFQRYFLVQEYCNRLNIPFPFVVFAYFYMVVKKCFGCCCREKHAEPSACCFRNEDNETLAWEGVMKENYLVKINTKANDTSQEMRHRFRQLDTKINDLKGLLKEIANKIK

SMILES | IC50 | % Inh @ 0.5 μM (0.5 µM) [%] | other results
COc1ccccc1C1CCCN1C(=O)C(Nc1ccccc1F)c1ccc(Br)cc1 (racemic) [Cpd 90] | 7 nM |  | inhibition at 0.5 µM: 97%
O=C(C(Nc1ccccc1)c1cccnc1)N1Cc2ccccc2C1 (racemic) [Cpd 215] |  |  | % Inh @ 0.2 μM: 18%
O=C(C(Nc1ccccc1)c1ccccn1)N1Cc2ccccc2C1 (racemic) [Cpd 216] |  |  | % Inh @ 0.2 μM: 32%
O=C(C(Nc1ccccc1)c1ccccn1)N1CCCC1c1ccccc1F (racemic) [Cpd 218] |  |  | % Inh @ 0.2 μM (0.2 µM): 49%
Cn1cc(C(Nc2ccccc2F)C(=O)N2CCCC2c2ccccc2F)c2ccccc21 (racemic) [Cpd 250] |  |  | % Inh @ 0.2 μM: 25%
O=C(C(Nc1ccccc1F)c1ccc(Br)cc1)N1CCCC1c1cccnc1 (racemic) [Cpd 269] |  |  | % Inh @ 0.2 μM: 47%
O=C(C(Nc1ccccc1F)c1ccc2c(c1)CCO2)N1CCCC1c1cccnc1 (racemic) [Cpd 282] |  |  | % Inh @ 0.2 μM: 17%
O=C(C(Nc1ccccc1F)c1cc2cccnc2s1)N1CCCC1c1ccccc1F (racemic) [Cpd 320] | 25 nM |  | inhibition at 0.2 µM: 87%
CN1CCN(NC(=O)[C@H](Nc2ccccc2)c2ccc(C(C)(C)C)cc2)[C@H](c2ccccc2)C1 (relative stereo) [Cpd 56, (2RS*)-2-(4-tert-Butyl-phenyl)-N-[(2RS*)-4-methyl-2-phenyl-piperazin-1-yl]-2-phenylamino-acetamide] |  |  | % Inh @ 0.5 μM: 26%
O=C([C@@H](CNc1ccccc1)c1ccc(C(F)(F)F)cc1)N1CCC[C@@H]1c1ccccc1 (relative stereo) [Cpd 130, 3-Phenylamino-1-[(2RS*)2-phenyl-pyrrolidin-1-yl]-(2RS*)-2-(4-trifluoromethyl-phenyl)-propan-1-one] | 36.2 nM |  | % Inh @ 0.5 μM: 101%
CC(C)(C)c1ccc(C(Nc2ccccc2)C(=O)N2CCCC2c2ccccc2Cl)cc1 (single isomer, unassigned) [Cpd 1] | 313 nM |  | inhibition at 1 µM: 101%
CC(C)(C)c1ccc(C(Nc2ccccc2)C(=O)N2CCCC2c2ccccc2Cl)cc1 (single isomer, unassigned) [Cpd 2] | 72.6 nM |  | % Inh @ 1 μM: 100.93%
CC(C)(C)c1ccc(C(Nc2ccccc2)C(=O)N2CCCC2c2ccc(Cl)cc2)cc1 (single isomer, unassigned) [Cpd 7] | 636 nM |  | % Inh @ 1 μM: 89.12%
CC(C)(C)c1ccc(C(Nc2ccccc2)C(=O)N2CCCC2c2cccc(Cl)c2)cc1 (single isomer, unassigned) [Cpd 8] | 778 nM |  | inhibition at 1 µM: 86.6%
CC(C)(C)c1ccc(C(Nc2ccccc2)C(=O)N2CCCC2c2cccc(Cl)c2)cc1 (single isomer, unassigned) [Cpd 9] | 161 nM |  | % Inh @ 1 μM: 102.98%
CC(C)(C)c1ccc(C(Nc2ccccc2)C(=O)N2CCC[C@H]2CNc2ccccc2)cc1 (single isomer, unassigned) [Cpd 10] | 517 nM |  | inhibition at 1 µM: 102%
O=C(C(Nc1ccccc1)c1ccc(C(F)(F)F)cc1)N1CCCC1c1ccccc1Cl (single isomer, unassigned) [Cpd 21] | 175 nM |  | inhibition at 0.5 µM: 103%
O=C(C(Nc1ccccc1)c1ccc(C(F)(F)F)cc1)N1CCCC1c1ccccc1Cl (single isomer, unassigned) [Cpd 22] | 378 nM | 102.36 | 
O=C(C(Nc1ccccc1)c1ccc(C(F)(F)F)cc1)N1CCCC1c1ccccc1Cl (single isomer, unassigned) [Cpd 23] | 17.2 nM | 103.39 | 
O=C(C(Nc1ccccc1)c1ccc(C(F)(F)F)cc1)N1CCCC1c1ccccc1C(F)(F)F (single isomer, unassigned) [Cpd 30] | 110 nM |  | inhibition at 0.5 µM: 103%
O=C(C(Nc1ccccc1)c1ccc(C(F)(F)F)cc1)N1CCCC1c1ccccc1C(F)(F)F (single isomer, unassigned) [Cpd 31] | 48.5 nM | 104.03 | 
O=C(C(Nc1ccccc1)c1ccc(C(F)(F)F)cc1)N1CCCC1c1ccccc1F (single isomer, unassigned) [Cpd 45] | 105 nM |  | inhibition at 0.5 µM: 101%
O=C(C(Nc1ccccc1)c1ccc(C(F)(F)F)cc1)N1CCCC1c1ccccc1F (single isomer, unassigned) [Cpd 46] | 7.46 nM | 101.53 | 

SMILES | IC50 | % Inh @ 0.5 μM (0.5 µM) [%] | other results
O=C(C(Nc1ccccc1)c1ccc(C(F)(F)F)cc1)N1CCCC1c1ccccc1F (single isomer, unassigned) [Cpd 47] | 200 nM | 99.791 | 
O=C(C(Nc1ccccc1)c1ccc(C(F)(F)F)cc1)N1CCCC1c1ccccc1F (single isomer, unassigned) [Cpd 48] | 219 nM | 85.869 | 
O=C(C(Nc1ccccc1)c1ccc(C(F)(F)F)cc1)N1CCCC1c1ccccc1Cl (single isomer, unassigned) [Cpd 60] | 41.4 nM | 103.24 | 
O=C(C(Nc1ccccc1)c1ccc(C(F)(F)F)cc1)N1CCCC1c1ccccc1Cl (single isomer, unassigned) [Cpd 61] | 168 nM | 103.2 | 
O=C(C(Nc1ccc(F)cc1)c1ccc(C(F)(F)F)cc1)N1CCCC1c1ccccc1 (single isomer, unassigned) [Cpd 75] | 20 nM |  | inhibition at 0.5 µM: 98%
O=C(C(Nc1ccc(F)cc1)c1ccc(C(F)(F)F)cc1)N1CCCC1c1ccccc1 (single isomer, unassigned) [Cpd 76] | 101 nM | 97 | 
O=C(C(Nc1ccccc1F)c1ccc(C(F)(F)F)cc1)N1CCCC1c1cccc(F)c1 (single isomer, unassigned) [Cpd 133] | 20.9 nM |  | inhibition at 0.5 µM: 98%
O=C([C@@H](Nc1ccccc1F)c1ccc(C(F)(F)F)cc1)N1CCC[C@H]1c1ccccc1F (single isomer, unassigned) [Cpd 152] | 61.3 nM |  | inhibition at 0.5 µM: 101%
O=C(C(Nc1ccccc1F)c1ccc(C(F)(F)F)cc1)N1CCCC1c1ccccc1F (single isomer, unassigned) [Cpd 154] | 104 nM | 97.552 | 
O=C(C(Nc1ccccc1F)c1ccc(Cl)cc1)N1CCCC1c1ccccc1F (single isomer, unassigned) [Cpd 157] | 146 nM |  | inhibition at 0.5 µM: 93%
O=C(C(Nc1ccccc1F)c1ccc(Br)cc1)N1CCCC1c1ccccc1F (single isomer, unassigned) [Cpd 159] | 109 nM and 38 nM |  | inhibition at 0.2 µM: 97%; inhibition at 0.5 µM: 94%
O=C(C(Nc1ccccc1F)c1ccc(Br)cc1)N1CCCC1c1ccccc1F (single isomer, unassigned) [Cpd 160] | 39 nM and 13 nM | 95 | % Inh @ 0.2 μM (0.2 µM): 87%
O=C(C(Nc1c(F)cccc1F)c1ccc(Br)cc1)N1CCCC1c1ccccc1F (single isomer, unassigned) [Cpd 161] | 63 nM and 36 nM |  | inhibition at 0.2 µM: 98%; inhibition at 0.5 µM: 93%
O=C(C(Nc1c(F)cccc1F)c1ccc(Br)cc1)N1CCCC1c1ccccc1F (single isomer, unassigned) [Cpd 162] | 5.45 nM | 99 | % Inh @ 0.2 μM (0.2 µM): 100%
O=C(C(Nc1cccc(F)c1F)c1ccc(Cl)cc1)N1CCCC1c1ccccc1F (single isomer, unassigned) [Cpd 163] | 145 nM |  | inhibition at 0.5 µM: 94%
O=C(C(Nc1cccc(F)c1F)c1ccc(Cl)cc1)N1CCCC1c1ccccc1F (single isomer, unassigned) [Cpd 164] | 26 nM | 96 | 
O=C(C(Nc1cccc(F)c1F)c1ccc(Cl)cc1)N1CCCC1c1ccccc1Cl (single isomer, unassigned) [Cpd 165] | 162 nM |  | inhibition at 0.5 µM: 99%
O=C(C(Nc1cccc(F)c1F)c1ccc(Cl)cc1)N1CCCC1c1ccccc1Cl (single isomer, unassigned) [Cpd 166] | 61 nM | 96 | 
COc1ccccc1C1CCCN1C(=O)C(Nc1ccccc1F)c1ccc(Br)cc1 (single isomer, unassigned) [Cpd 175] | 69 nM |  | inhibition at 0.2 µM: 85%
COc1ccccc1C1CCCN1C(=O)C(Nc1ccccc1F)c1ccc(Br)cc1 (single isomer, unassigned) [Cpd 176] | 30 nM |  | % Inh @ 0.2 μM (0.2 µM): 94%
O=C(C(Nc1ccccc1F)c1ccc(C(F)(F)F)cc1)N1CCCC1c1cccc(F)c1 (single isomer, unassigned) [Cpd 185] | 150 nM |  | inhibition at 0.2 µM: 82%
O=C(C(Nc1ccccc1F)c1ccc(C(F)(F)F)cc1)N1CCCC1c1cccc(F)c1 (single isomer, unassigned) [Cpd 187] | 4 nM |  | % Inh @ 0.2 μM (0.2 µM): 98%
